We go through one compound from patent publication US20250313879A1, “Fluorescent Probe for Detecting Peptide Bond Hydrolase” (The University of Tokyo, priority 2022, published 2025).

Series [1] is described as follows: Solubility in sealing oil (hexadecane). It counts as physicochemical. The settings on record: oil or lipid, kinetic from dmso stock, room temperature (25° C.), three tests, average value±standard deviation. As for the experimental part: That is, 1 μL of a 10 mM DMSO solution of the test compound was added with respect to 100 μL of hexadecane as sealing oil, and the mixture was sonicated and suspended at room temperature (25° C.) for 1 minute. Thereafter, the solution was centrifuged for 30 seconds, 50 μL of the supernatant was collected and mixed with 100 μL of methanol, and a compound dissolved in hexadecane was extracted. Thereafter, the methanol solution from which the compound was extracted was analyzed by ultra performance liquid chromatography (UPLC) (eluent: A/B=95/5>5/95, A: 0.1% formic acid-containing 100% H2O, B: 0.1% formic acid-containing 100% CH3CN), and the concentration of the compound in the methanol solution was calculated from the peak area. In the calculation of the solution concentration using the UPLC peak area, solutions having a plurality of concentrations were prepared and measured for each compound, then a calibration curve was prepared (FIG. 5), and the calculation was performed according to the calibration curve.

For series [2], the system named is dipeptidyl peptidase. As to the kind of experiment: Signal/noise ratio of enzymolysate in microdevice. The format is biochemical. The settings on record: 30 μM probe, 0.2 ng/mL dipeptidyl peptidase, 25° C. 2 hours. How it is done: (§1) For two types of compounds Glu-sSiR (PB206/Example 12) and GP-sHMRG (PB109/Example 7), the signal/noise ratios of the enzymolysates before and after the enzyme reaction in the cuvette and the microdevice were each measured as follows. In the following experiments, the composition of the assay buffer is 100 mM HEPES-NaOH (pH 7.4), 1 mM MgCl2, 1 mM CaCl2), […].
For GP-sHMRG, three kinds of solutions of (iv) only an assay buffer, (v) 30 μM of GP-sHMRG, and (vi) 30 μM of GP-sHMRG and 0.2 ng/mL of dipeptidyl peptidase were prepared, and each solution was added to a microdevice, followed by the addition of sealing oil to enclose the solution in each well. The microdevice in which the solution was enclosed was incubated at 25° C. for 2 hours, and then the fluorescence intensity of each well was measured with a fluorescence microscope. When a difference between the average values of the fluorescence intensities of the respective wells in (v) and (iv) was defined as noise, a difference between the average value of the fluorescence intensities of the wells in which the enzyme was encapsulated in (vi) and the average value of the fluorescence intensities of the respective wells in (iv) was defined as a signal, and a ratio of these values was calculated as the signal/noise ratio of the enzymolysate, the ratio was 287 times (see FIG. 8, panel B). […]

Series [3] concerns dipeptidyl peptidase. Put plainly: Signal/noise ratio of enzymolysate in cuvette. The format is biochemical. The settings on record: 10 μM probe, 17 ng/mL dipeptidyl peptidase, 25° C. 9 hours, @527 nm. As for the experimental part:
as §1
GP-sHMRG was diluted with an assay buffer so as to be 10 μM, then added to a quartz cuvette, and the fluorescence spectrum before the enzyme reaction was measured with a fluorometer (excitation wavelength: 500 nm). Thereafter, dipeptidyl peptidase was added so that the concentration in the solution was 17 ng/mL, the solution was incubated at 25° C. for 9 hours, and then the fluorescence spectrum was measured. The fluorescence spectra before and after the enzyme reaction were compared, the ratio of the values at a wavelength at which the fluorescence intensity was maximized was calculated as the signal/noise ratio of the enzymolysate, the ratio was 481 times (@527 nm) (see FIG. 7B).

Series [4] has as its system peptidase activity in human plasma sample. As to the kind of experiment: Enzyme activity assay in microdevice with human plasma, peptidase probes. The format is biochemical. To be noted: 50 μM probe, human plasma 5,000 fold dilution, 25° C. for 2 hours. As for the experimental part:
(§2) • 1. GP-sHMRG as a fluorescent probe for detecting peptidase activity was diluted with an assay buffer to 100 μM. The composition of the assay buffer is 100 mM HEPES-NaOH (pH 7.4), 1 mM MgCl2, 1 mM CaCl2, 1 mM DTT, 3 mM Triton X-100. • 2. Next, a human plasma sample was diluted by 2,500 times with the above assay buffer, and mixed in an equal amount with the diluted solution of the probe. At this time, the final concentrations of both are 50 μM for GP-sHMRG and 5,000 fold dilution for the human plasma sample. • 3. The mixed solution of both was then added to a microdevice, followed by the addition of sealing oil to enclose the solution in each well. • 4. The microdevice in which the solution was enclosed was incubated at 25° C. for 2 hours, and then the fluorescence intensity of each well was measured with a fluorescence microscope.
as §2, with “1. Ac-Ala-sHMRG” for “1. GP-sHMRG”, “by 250” for “by 2,500”, “for Ac-Ala-sHMRG” for “for GP-sHMRG”, “and 500” for “and 5,000”, “at 37°” for “at 25°”, “for 4” for “for 2”
• 1. Ac-GP-sSiR as a fluorescent probe for detecting peptidase activity was diluted with an assay buffer to 100 μM. The composition of the assay buffer is 100 mM HEPES-NaOH (pH 7.4), 1 mM MgCl2, 1 mM CaCl2, 1 mM DTT, 3 mM Triton X-100. • 2. […] The microdevice in which the solution was enclosed was incubated at 37° C. for 2 hours, and then the fluorescence intensity of each well was measured with a fluorescence microscope.

For the next series, the target named is T1, DPP4 (Homo sapiens, UniProt P27487).
T1 construct: from tissue; host or cells: human plasma of pancreatic cancer patients and healthy subjects
T1 sequence (P27487 whole entry): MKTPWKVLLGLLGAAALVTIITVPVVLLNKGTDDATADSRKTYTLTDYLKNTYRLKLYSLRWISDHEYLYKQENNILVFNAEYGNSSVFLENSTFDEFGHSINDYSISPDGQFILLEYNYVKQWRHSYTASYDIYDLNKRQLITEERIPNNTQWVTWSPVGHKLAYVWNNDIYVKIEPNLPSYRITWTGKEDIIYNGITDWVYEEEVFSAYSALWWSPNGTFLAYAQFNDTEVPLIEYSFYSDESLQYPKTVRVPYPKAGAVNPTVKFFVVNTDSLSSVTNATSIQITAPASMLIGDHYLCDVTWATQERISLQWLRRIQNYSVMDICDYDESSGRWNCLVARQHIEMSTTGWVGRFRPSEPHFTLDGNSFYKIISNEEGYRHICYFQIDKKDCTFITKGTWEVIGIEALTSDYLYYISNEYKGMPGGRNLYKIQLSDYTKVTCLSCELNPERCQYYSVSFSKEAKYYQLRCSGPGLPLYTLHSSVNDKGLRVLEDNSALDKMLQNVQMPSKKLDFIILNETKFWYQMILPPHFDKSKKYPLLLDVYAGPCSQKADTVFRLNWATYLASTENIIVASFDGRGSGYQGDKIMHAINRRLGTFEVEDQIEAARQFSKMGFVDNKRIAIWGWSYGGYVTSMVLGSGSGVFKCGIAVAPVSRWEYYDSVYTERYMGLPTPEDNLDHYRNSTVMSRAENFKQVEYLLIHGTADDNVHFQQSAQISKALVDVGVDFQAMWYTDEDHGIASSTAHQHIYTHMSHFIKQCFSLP
As to the kind of experiment: Diagnostic experiment of pancreatic cancer utilizing single-molecule enzyme activity of DPP4. The format is biochemical. As for the experimental part:
In order to detect the single-molecule enzyme activity of DPP4, an experiment to verify the availability of the probe GP-sHMRG to which Gly-Pro is bonded as a reaction point to detect a pancreatic cancer biomarker was performed in the following procedures. • 1. GP-sHMRG as a DPP4 detecting probe was diluted with an assay buffer to 100 μM. The composition of the assay buffer is 100 mM HEPES-NaOH (pH 7.4), 1 mM MgCl2, 1 mM CaCl2), 1 mM DTT, 3 mM Triton X-100. • 2. Next, human plasma samples collected from 30 patients with pancreatic cancer and 30 healthy subjects were each diluted by 2,500 times with the above assay buffer, and mixed in an equal amount with the diluted solution of GP-sHMRG. At this time, the final concentrations of both are 50 μM for the GP-sHMRG probe and 5,000 fold dilution for the human plasma sample. • 3. The mixed solution of both was then added to a microdevice, followed by the addition of sealing oil to enclose the solution in each well. • 4. The microdevice in which the solution was enclosed was incubated at 25° C. for 2 hours, and then the fluorescence intensity of each well was measured with a fluorescence microscope. […] The histogram created based on the detected fluorescence intensity of each well is approximated to a curve including two normal distributions.
Specifically, in this example, an ROC curve for determination based on the enzyme activity of DPP4 determined based on the proportion of the high activity group is created, and when a threshold is subtracted at the time when the proportion of the high activity group is 55%, the sensitivity is 37% and the specificity is 97% (the right view of FIG. 4). It is possible to determine pancreatic cancer by such an ROC curve.

[5] abbreviates: threshold: proportion of the high activity group is 55%, pancreatic cancer vs healthy.

In general, solubility refers to the concentration that dissolves in the medium under given conditions. A high value points to a readily soluble substance.

Converted amounts (≈) assume the structure as drawn.

Consider `NCC(=O)N1CCCC1C(=O)Nc1ccc2c(c1)Oc1cc(N)ccc1C21OCc2cc(S(=O)(=O)O)ccc21` (stereo not shown) [GP-sHMRG], for which, in series [1], the concentration in solution (solubility at 1 min) was 0.27 ± 0.026 µM (≈ 0.149 µg/mL). Also, the figures for the “signal/noise ratio of the enzymolysate” value in the series on dipeptidyl peptidase [2] and with dipeptidyl peptidase [3] were 287 times and 481 times, respectively. Moreover, the “fluorescence intensity of wells in which the reacting enzyme was enclosed” value in series [4] is “increase in fluorescence intensity was observed”. On DPP4 (patients with pancreatic cancer compared with healthy subjects, 50 μM probe, plasma 5,000 fold dilution, 25° C. 2 hours), the “ratio of the high activity group to the total of high and low activity groups” value is reported as “significant increase”. Moreover, the “sensitivity (ROC curve, DPP4 activity)” value at DPP4 (setting [5]) is reported as 37%. The “specificity (ROC curve, DPP4 activity)” value on DPP4 (setting [5]) turned out to be 97%.
